Experiment: Contingency table classification of C(t) acceptance range as surrogate for Cavg
Design: species or system hypogonadal men
Settings: for Percent of Subjects: C(t) in range / Percent of Subjects: C(t) too high / Percent of Subjects: C(t) too low / Percent of Subjects: Cavg in range & C(t) in range / Percent of Subjects: Cavg in range & C(t) too high / Percent of Subjects: Cavg in range & C(t) too low / Percent of Subjects: Cavg too high & C(t) too high / Percent of Subjects: Cavg too low & C(t) in range / Percent of Subjects: Cavg too low & C(t) too low / Percent of Subjects: Cavg too high & C(t) in range: Cavg 300-1000 ng/dL; for Percent of subjects: Cavg in Range F & C(t) in Range F (total of too high and too low): Cavg 300-1000
Description: For the contingency table approach, the number and percentage of subjects that fell into each of the following seven categories were enumerated, for each of the candidate time points, and for each candidate target range for Cavg, and for each candidate acceptance range for C(t). • 1. Subjects with Cavg within range and with C(t) within range • 2. Subjects with Cavg below range and with C(t) below range • 3. Subjects with Cavg above range and with C(t) above range • 4. Subjects with Cavg within range but with C(t) below range • 5. Subjects with Cavg within range but with C(t) above range • 6. Subjects with Cavg below range, but with C(t) within range • 7. Subjects with Cavg above range, but with C(t) within range
If one defines a value as being “within range” as positive, and being “outside of range” as negative, then Group 1 is subjects that are “true positives”, Groups 2 and 3 are “true negatives”, groups 4 and 5 are “false negatives”, and groups 6 and 7 are “false positives”. Groups, 1, 2 and 3 represent successful predictions because C(t) is an appropriate surrogate for Cavg; Groups 4, 5, 6 and 7 are prediction failures because C(t) is an inaccurate surrogate for Cavg.
Correlations and contingency table calculations were performed using built-in functions in the Excel module of Microsoft Office 2003 (Redmond, Wash.). Graphs were produced using the built-in charting capabilities of Excel.

[1] = C(1.5), C(t) acceptance 130-1110

CCCCCCCCCCC(=O)O[C@H]1CC[C@H]2[C@@H]3CCC4=CC(=O)CC[C@]4(C)[C@H]3CC[C@]12C [TU, testosterone undecanoate]
Percent of Subjects: C(t) in range (C(0), C(t) acceptance 80-1000): 87.8%
Percent of Subjects: C(t) too high (C(0), C(t) acceptance 80-1000): C(t) too high 4.9%
Percent of Subjects: C(t) too low (C(0), C(t) acceptance 80-1000): 7.3%
Percent of Subjects: Cavg in range & C(t) in range (C(0), C(t) acceptance 80-1000): 75.6%
Percent of Subjects: Cavg in range & C(t) too high (C(0), C(t) acceptance 80-1000): 2.4%
Percent of Subjects: Cavg in range & C(t) too low (C(0), C(t) acceptance 80-1000): 2.4%
Percent of Subjects: Cavg too high & C(t) too high (C(0), C(t) acceptance 80-1000): 2.4%
Percent of Subjects: Cavg too low & C(t) in range (C(0), C(t) acceptance 80-1000): 7.3%
Percent of Subjects: C(t) in range (C(1), C(t) acceptance 130-1000): 85.4%
Percent of Subjects: C(t) too high (C(1), C(t) acceptance 130-1000): 2.4%
Percent of Subjects: C(t) too low (C(1), C(t) acceptance 130-1000): 12.2%
Percent of Subjects: Cavg in range & C(t) in range (C(1), C(t) acceptance 130-1000): 78.0%
Percent of Subjects: Cavg in range & C(t) too high (C(1), C(t) acceptance 130-1000): 0.0%
Percent of Subjects: Cavg in range & C(t) too low (C(1), C(t) acceptance 130-1000): 2.4%
Percent of Subjects: Cavg too high & C(t) too high (C(1), C(t) acceptance 130-1000): 2.4%
Percent of Subjects: Cavg too low & C(t) in range (C(1), C(t) acceptance 130-1000): 2.4%
Percent of Subjects: Cavg too low & C(t) too low (C(1), C(t) acceptance 130-1000): 9.8%
Percent of Subjects: C(t) in range [1]: 90.2%
Percent of Subjects: C(t) too high [1]: 0.0%
Percent of Subjects: C(t) too low [1]: 9.8%
Percent of Subjects: Cavg in range & C(t) in range [1]: 80.5%
Percent of Subjects: Cavg in range & C(t) too high [1]: 0.0%
Percent of Subjects: Cavg in range & C(t) too low [1]: 0.0%
Percent of Subjects: Cavg too high & C(t) in range [1]: 7.3%
Percent of Subjects: Cavg too high & C(t) too high [1]: 0.0%
Percent of Subjects: Cavg too low & C(t) in range [1]: 2.4%
Percent of Subjects: Cavg too low & C(t) too low [1]: 9.8%
Percent of Subjects: C(t) in range (C(2), C(t) acceptance 150-1200): 90.2%
Percent of Subjects: C(t) too high (C(2), C(t) acceptance 150-1200): 0.0%
Percent of Subjects: C(t) too low (C(2), C(t) acceptance 150-1200): 9.8%
Percent of Subjects: Cavg in range & C(t) in range (C(2), C(t) acceptance 150-1200): 80.5%
Percent of Subjects: Cavg in range & C(t) too high (C(2), C(t) acceptance 150-1200): 0.0%
Percent of Subjects: Cavg in range & C(t) too low (C(2), C(t) acceptance 150-1200): 0.0%
Percent of Subjects: Cavg too high & C(t) in range (C(2), C(t) acceptance 150-1200): 7.3%
Percent of Subjects: Cavg too high & C(t) too high (C(2), C(t) acceptance 150-1200): 0.0%
Percent of Subjects: Cavg too low & C(t) in range (C(2), C(t) acceptance 150-1200): 2.4%
Percent of Subjects: Cavg too low & C(t) too low (C(2), C(t) acceptance 150-1200): 9.8%
Percent of subjects: Cavg in Range F & C(t) in Range F (total of too high and too low) (C(3), C(t) acceptance 190-1450): 7.3%
Percent of Subjects: C(t) in range (C(3), C(t) acceptance 190-1500): 90.2%
Percent of Subjects: C(t) too high (C(3), C(t) acceptance 190-1500): 0.0%
Percent of Subjects: C(t) too low (C(3), C(t) acceptance 190-1500): 9.8%
Percent of Subjects: Cavg in range & C(t) in range (C(3), C(t) acceptance 190-1500): 78.0%
Percent of Subjects: Cavg in range & C(t) too high (C(3), C(t) acceptance 190-1500): 0.0%
Percent of Subjects: Cavg in range & C(t) too low (C(3), C(t) acceptance 190-1500): 2.4%
Percent of Subjects: Cavg too high & C(t) in range (C(3), C(t) acceptance 190-1500): 7.3%
Percent of Subjects: Cavg too high & C(t) too high (C(3), C(t) acceptance 190-1500): 0.0%
Percent of Subjects: Cavg too low & C(t) in range (C(3), C(t) acceptance 190-1500): 4.9%
Percent of Subjects: Cavg too low & C(t) too low (C(3), C(t) acceptance 190-1500): 7.3%
Percent of Subjects: C(t) in range (C(4), C(t) acceptance 250-1700): 82.9%
Percent of Subjects: C(t) too high (C(4), C(t) acceptance 250-1700): 2.4%
Percent of Subjects: C(t) too low (C(4), C(t) acceptance 250-1700): 14.6%
Percent of Subjects: Cavg in range & C(t) in range (C(4), C(t) acceptance 250-1700): 75.6%
Percent of Subjects: Cavg in range & C(t) too high (C(4), C(t) acceptance 250-1700): 0.0%
Percent of Subjects: Cavg in range & C(t) too low (C(4), C(t) acceptance 250-1700): 4.9%
Percent of Subjects: Cavg too high & C(t) in range (C(4), C(t) acceptance 250-1700): 4.9%
Percent of Subjects: Cavg too high & C(t) too high (C(4), C(t) acceptance 250-1700): 2.4%
Percent of Subjects: Cavg too low & C(t) in range (C(4), C(t) acceptance 250-1700): 2.4%
Percent of Subjects: Cavg too low & C(t) too low (C(4), C(t) acceptance 250-1700): 9.8%
Percent of subjects: Cavg in Range F & C(t) in Range F (total of too high and too low) (C(4), C(t) acceptance 250-1700): 12.2%
Percent of Subjects: C(t) in range (C(5), C(t) acceptance 250-1400): 82.9%
Percent of Subjects: C(t) too high (C(5), C(t) acceptance 250-1400): 4.9%
Percent of Subjects: C(t) too low (C(5), C(t) acceptance 250-1400): 12.2%
Percent of Subjects: Cavg in range & C(t) in range (C(5), C(t) acceptance 250-1400): 75.6%

— patent US20210220374A1, “METHODS OF TREATING TE[…]” (Clarus Therapeutics, Inc., priority 2013, published 2021)
